# Laboratory results published in ChEMBL document CHEMBL4422618, “Translational impact of novel widely pharmacological characterized mofezolac-derived COX-1 inhibitors combined with bortezomib on human multiple myeloma cell lines viability” (Eur J Med Chem, 2019).
# The source made the active and inactive calls. The calls are words filed in the database; no cut-off is given here.
# Key:
# RPMI-8226 [1] = assay: Cell cycle arrest in human RPMI8226 cells assessed as reduction in accumulation at G2/M phase at […] in presence of bortezomib after 48 hrs by propidium iodide/RNase staining based flow cytometric method relative to bortezomib; assay type: functional
# RPMI-8226 [2] = assay: Induction of apoptosis in human RPMI8226 cells assessed as necrotic cells at […] after 48 hrs in presence of bortezomib by Annexin-V/propidium iodide staining based flow cytometric method (reference value: 0.090%); assay type: functional
# NCI-H929 [3] = assay: Induction of apoptosis in human NCI-H929 cells assessed as late apoptotic cells at […] after 48 hrs by Annexin-V/propidium iodide staining based flow cytometric method (reference value: 0.23%); assay type: functional
# NCI-H929 [4] = assay: Induction of apoptosis in human NCI-H929 cells assessed as necrotic cells at […] after 48 hrs by Annexin-V/propidium iodide staining based flow cytometric method (reference value: 0.0034%); assay type: functional
# [5] = Genotoxicity in Escherichia coli PQ37 at 500 uM after overnight incubation by SOS chromotest; assay type: toxicity
# [6] = Mutagenicity in Salmonella typhimurium TA98 at 500 uM by Ames test; assay type: toxicity; settings: salmonella enterica subsp. enterica serovar typhimurium
# Plasma [7] = assay: Anticoagulant activity in human platelet poor plasma assessed as activated partial thromboplastin time at 100 uM incubated for 15 mins at room temperature and subsequent incubation for 2 mins at 37 degreeC followed by cephalin addition and measured after 2 mins for every secs in presence of CaCl2; assay type: functional
# NCI-H929 [8] = assay: Induction of apoptosis in human NCI-H929 cells assessed as viable cells at […] after 48 hrs by Annexin-V/propidium iodide staining based flow cytometric method (reference value: 82.6%); assay type: functional; settings: NCI-H929, 48 h, read-out: Activity
# NCI-H929 [9] = assay: Induction of apoptosis in human NCI-H929 cells assessed as early apoptotic cells at […] after 48 hrs by Annexin-V/propidium iodide staining based flow cytometric method (reference value: 17.1%); assay type: functional
# Platelet = assay: Antiplatelet activity in human platelet rich plasma assessed as inhibition of arachidonic acid-induced platelet aggregation preincubated for 2 mins followed by arachidonic acid addition by turbidimetric method; assay type: functional, cell-based
# [10] = Hemolytic activity in erythrocytes (unknown origin) at 100 uM after 3 hrs by spectrophotometric analysis; assay type: ADME, cell-based, Erythrocyte; settings: read-out: Activity
# [11] = Genotoxicity in Escherichia coli PQ35 at 500 uM after overnight incubation by SOS chromotest; assay type: toxicity
# [12] = Mutagenicity in Salmonella typhimurium TA100 at 500 uM by Ames test; assay type: toxicity; settings: salmonella enterica subsp. enterica serovar typhimurium
# RPMI-8226 [13] = assay: Cell cycle arrest in human RPMI8226 cells assessed as accumulation at S phase at […] after 48 hrs by propidium iodide/RNase staining based flow cytometric method; assay type: functional
# RPMI-8226 [14] = assay: Cell cycle arrest in human RPMI8226 cells assessed as accumulation at S phase at […] in presence of bortezomib after 48 hrs by propidium iodide/RNase staining based flow cytometric method relative to bortezomib; assay type: functional
# NCI-H929 [15] = assay: Induction of apoptosis in human NCI-H929 cells assessed as necrotic cells at […] after 48 hrs in presence of bortezomib by Annexin-V/propidium iodide staining based flow cytometric method (reference value: 0.0034%); assay type: functional
# NCI-H929 [16] = assay: Cytotoxicity against human NCI-H929 cells assessed as reduction in cell viability at […] after 48 hrs by CCK8 assay; assay type: functional, cell-based
# RPMI-8226 [17] = assay: Cytotoxicity against human RPMI8226 cells assessed as reduction in cell viability at 42 nM after 48 hrs by CCK8 assay relative to control; assay type: functional
# [18] = Mutagenicity in Salmonella typhimurium TA97 at 500 uM by Ames test; assay type: toxicity; settings: salmonella enterica subsp. enterica serovar typhimurium
# NCI-H929 [19] = assay: Induction of apoptosis in human NCI-H929 cells assessed as viable cells at […] after 48 hrs in presence of bortezomib by Annexin-V/propidium iodide staining based flow cytometric method (reference value: 82.6%); assay type: functional; settings: NCI-H929, 48 h, read-out: Activity
# NCI-H929 [20] = assay: Cell cycle arrest in human NCI-H929 cells assessed as accumulation at S phase at […] in presence of bortezomib after 48 hrs by propidium iodide/RNase staining based flow cytometric method relative to bortezomib alone; assay type: functional
# RPMI-8226 [21] = assay: Cell cycle arrest in human RPMI8226 cells assessed as accumulation at G0/G1 phase at […] after 48 hrs by propidium iodide/RNase staining based flow cytometric method; assay type: functional
# RPMI-8226 [22] = assay: Induction of apoptosis in human RPMI8226 cells assessed as late apoptotic cells at […] after 48 hrs in presence of bortezomib by Annexin-V/propidium iodide staining based flow cytometric method (reference value: 0.21%); assay type: functional
# [23] = Mutagenicity in Salmonella typhimurium TA102 at 500 uM by Ames test; assay type: toxicity; settings: salmonella enterica subsp. enterica serovar typhimurium
# NCI-H929 [24] = assay: Potentiation of bortezomib-induced cytotoxicity against human NCI-H929 cells assessed as reduction in cell viability at […] after 48 hrs in presence of bortezomib by CCK8 assay; assay type: functional, cell-based
# RPMI-8226 [25] = assay: Induction of apoptosis in human RPMI8226 cells assessed as early apoptotic cells at […] after 48 hrs in presence of bortezomib by Annexin-V/propidium iodide staining based flow cytometric method (reference value: 1.05%); assay type: functional
# RPMI-8226 [26] = assay: Potentiation of bortezomib-induced cytotoxicity against human RPMI8226 cells assessed as reduction in cell viability at […] after 48 hrs in presence of bortezomib by CCK8 assay; assay type: functional
# RPMI-8226 [27] = assay: Induction of apoptosis in human RPMI8226 cells assessed as viable cells at […] after 48 hrs in presence of bortezomib by Annexin-V/propidium iodide staining based flow cytometric method (reference value: 98.7%); assay type: functional; settings: RPMI-8226, 48 h, read-out: Activity
# NCI-H929 [28] = assay: Induction of apoptosis in human NCI-H929 cells assessed as late apoptotic cells at […] after 48 hrs in presence of bortezomib by Annexin-V/propidium iodide staining based flow cytometric method (reference value: 0.23%); assay type: functional
# NCI-H929 [29] = assay: Cell cycle arrest in human NCI-H929 cells assessed as accumulation at G0/G1 phase at […] in presence of bortezomib after 48 hrs by propidium iodide/RNase staining based flow cytometric method relative to bortezomib alone; assay type: functional
# Plasma [30] = assay: Anticoagulant activity in human platelet poor plasma assessed as prothrombin time at 100 uM incubated for 15 mins at room temperature and subsequent incubation for 2 mins at 37 degreeC followed by PBS addition and measured after 3 mins for every secs in presence of calcium thromboplastin; assay type: functional
# NCI-H929 [31] = assay: Induction of apoptosis in human NCI-H929 cells assessed as early apoptotic cells at […] after 48 hrs in presence of bortezomib by Annexin-V/propidium iodide staining based flow cytometric method (reference value: 17.1%); assay type: functional
# RPMI-8226 [32] = assay: Cell cycle arrest in human RPMI8226 cells assessed as accumulation at G0/G1 phase at […] in presence of bortezomib after 48 hrs by propidium iodide/RNase staining based flow cytometric method relative to bortezomib; assay type: functional
smiles,measurement,setting,value
COc1ccc(-c2noc(CC(=O)O)c2-c2ccc(OC)cc2)cc1 [MOFEZOLAC],Activity,RPMI-8226 [1],Active
same,Activity,RPMI-8226 [2],0.006%
same,Activity,NCI-H929 [3],0.13%
same,Activity,NCI-H929 [4],0%
same,Activity,[5],Non-Toxic
same,Activity,[6],Non-Toxic
same,APTT,Plasma [7],50.8 s
same,viability at […],NCI-H929 [8],81.1%
same,Activity,NCI-H929 [9],18.7%
same,IC50,Platelet,0.45 µM
same,"hemolysis at 3 h, 100 µM",[10],0%
same,Activity,[11],Non-Toxic
same,Activity,[12],Non-Toxic
same,Activity,RPMI-8226 [13],inactive
same,Activity,RPMI-8226 [14],Active
same,Activity,NCI-H929 [15],0%
same,Activity,NCI-H929 [16],inactive
same,Activity,RPMI-8226 [17],1%
same,Activity,[18],Non-Toxic
same,viability at […],NCI-H929 [19],35.4%
same,Activity,NCI-H929 [20],15%
same,Activity,RPMI-8226 [21],inactive
same,Activity,RPMI-8226 [22],0.31%
same,Activity,[23],Non-Toxic
same,Activity,NCI-H929 [24],inactive
same,Activity,RPMI-8226 [25],7.86%
same,Activity,RPMI-8226 [26],56%
same,viability at […],RPMI-8226 [27],91.8%
same,Activity,NCI-H929 [28],0.24%
same,Activity,NCI-H929 [29],15%
same,PT,Plasma [30],14.2 s
same,Activity,NCI-H929 [31],64.3%
same,Activity,RPMI-8226 [32],Active
